ChEMBL document CHEMBL2375296, “BCR-ABL tyrosine kinase inhibitor pharmacophore model derived from a series of phenylaminopyrimidine-based (PAP) derivatives” (Bioorg Med Chem Lett, 2013)

Target: Bcr/Abl fusion protein (Homo sapiens, UniProt P00519)
Assay: Inhibition of BCR-ABL kinase (unknown origin)
Format: protein assay

Bcr/Abl fusion protein, sequence (P00519 whole entry, the tested form may be a part): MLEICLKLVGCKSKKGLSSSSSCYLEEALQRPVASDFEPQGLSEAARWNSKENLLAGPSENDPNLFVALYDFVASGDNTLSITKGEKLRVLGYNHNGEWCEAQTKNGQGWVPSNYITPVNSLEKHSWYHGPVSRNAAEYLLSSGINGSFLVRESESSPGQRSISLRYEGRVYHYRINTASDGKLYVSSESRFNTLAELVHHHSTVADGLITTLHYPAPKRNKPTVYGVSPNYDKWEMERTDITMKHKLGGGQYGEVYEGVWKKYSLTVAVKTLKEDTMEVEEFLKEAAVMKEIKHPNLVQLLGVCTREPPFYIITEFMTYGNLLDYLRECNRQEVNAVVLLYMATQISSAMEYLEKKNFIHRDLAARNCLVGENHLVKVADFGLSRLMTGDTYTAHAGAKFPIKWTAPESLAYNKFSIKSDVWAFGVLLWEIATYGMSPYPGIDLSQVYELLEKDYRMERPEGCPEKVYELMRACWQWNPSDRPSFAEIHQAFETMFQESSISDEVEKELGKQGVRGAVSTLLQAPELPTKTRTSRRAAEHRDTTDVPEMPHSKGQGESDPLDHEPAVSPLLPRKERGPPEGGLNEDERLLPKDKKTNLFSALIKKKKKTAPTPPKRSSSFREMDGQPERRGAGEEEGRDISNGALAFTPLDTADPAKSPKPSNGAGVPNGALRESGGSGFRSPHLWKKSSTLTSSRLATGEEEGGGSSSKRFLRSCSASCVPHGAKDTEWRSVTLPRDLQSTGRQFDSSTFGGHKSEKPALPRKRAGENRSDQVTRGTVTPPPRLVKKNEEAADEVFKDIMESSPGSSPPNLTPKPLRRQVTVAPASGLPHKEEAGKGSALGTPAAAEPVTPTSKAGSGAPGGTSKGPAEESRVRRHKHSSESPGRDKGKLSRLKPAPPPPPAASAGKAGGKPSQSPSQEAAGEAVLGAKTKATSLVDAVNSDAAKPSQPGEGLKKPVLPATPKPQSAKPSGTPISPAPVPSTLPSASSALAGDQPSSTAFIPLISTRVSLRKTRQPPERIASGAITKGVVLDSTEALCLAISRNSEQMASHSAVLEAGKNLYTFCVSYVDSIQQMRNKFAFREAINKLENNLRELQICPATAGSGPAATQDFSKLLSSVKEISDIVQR
Bcr/Abl fusion protein, sequence (P11274 whole entry, further chain, the tested form may be a part): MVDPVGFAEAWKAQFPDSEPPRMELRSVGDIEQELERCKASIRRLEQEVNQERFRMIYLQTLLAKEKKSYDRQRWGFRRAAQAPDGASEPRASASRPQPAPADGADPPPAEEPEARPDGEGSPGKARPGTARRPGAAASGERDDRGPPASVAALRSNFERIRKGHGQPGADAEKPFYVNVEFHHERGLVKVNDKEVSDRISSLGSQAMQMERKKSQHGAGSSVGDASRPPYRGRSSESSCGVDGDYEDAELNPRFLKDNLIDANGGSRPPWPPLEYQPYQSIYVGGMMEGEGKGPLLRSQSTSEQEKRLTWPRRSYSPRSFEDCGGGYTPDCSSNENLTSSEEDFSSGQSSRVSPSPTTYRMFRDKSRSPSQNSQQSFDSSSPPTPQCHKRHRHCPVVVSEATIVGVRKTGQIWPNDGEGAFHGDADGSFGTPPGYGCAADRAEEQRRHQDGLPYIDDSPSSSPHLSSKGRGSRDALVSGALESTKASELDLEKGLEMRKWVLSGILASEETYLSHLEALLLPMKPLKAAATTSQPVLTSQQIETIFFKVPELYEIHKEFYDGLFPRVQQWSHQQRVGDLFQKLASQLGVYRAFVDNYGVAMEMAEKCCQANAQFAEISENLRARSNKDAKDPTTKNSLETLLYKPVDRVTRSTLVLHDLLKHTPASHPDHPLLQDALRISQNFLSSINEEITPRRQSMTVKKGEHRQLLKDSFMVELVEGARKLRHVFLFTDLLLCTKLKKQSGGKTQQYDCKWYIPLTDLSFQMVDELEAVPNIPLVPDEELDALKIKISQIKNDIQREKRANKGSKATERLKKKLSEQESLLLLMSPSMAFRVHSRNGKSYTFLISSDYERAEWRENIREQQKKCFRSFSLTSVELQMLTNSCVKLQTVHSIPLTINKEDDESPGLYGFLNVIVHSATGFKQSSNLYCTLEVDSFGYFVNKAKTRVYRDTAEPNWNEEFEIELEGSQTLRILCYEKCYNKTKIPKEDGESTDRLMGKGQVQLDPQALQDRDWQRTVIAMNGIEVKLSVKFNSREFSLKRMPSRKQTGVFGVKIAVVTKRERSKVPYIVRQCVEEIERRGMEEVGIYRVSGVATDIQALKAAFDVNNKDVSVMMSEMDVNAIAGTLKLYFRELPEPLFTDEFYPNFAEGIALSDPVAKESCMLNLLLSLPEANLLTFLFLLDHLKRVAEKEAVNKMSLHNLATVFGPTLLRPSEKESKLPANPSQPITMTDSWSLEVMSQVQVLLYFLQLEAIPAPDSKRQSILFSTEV

| IC50 [µM] | Structure (SMILES) |
| --- | --- |
| 0.017 | Cc1ccc(NC(=O)c2ccc(CN3CC(N(C)C)C3)c(C(F)(F)F)c2)cc1Nc1nccc(-c2cncnc2)n1 |
| 0.2 | O=C(Nc1cccc(Nc2nccc(-c3cccnc3)n2)c1)c1ccc(F)cc1 |
| 1.91 | COc1ccccc1C(=O)Nc1cccc(Nc2nccc(-c3cccnc3)n2)c1 |
| 0.011 | Cc1ccc(NC(=O)c2ccc(CN3CCC(CN(C)C)C3)c(C(F)(F)F)c2)cc1Nc1nccc(-c2cncnc2)n1 (stereo not drawn) |
| 3.8 | O=C(Nc1cccc(Nc2nccc(-c3cccnc3)n2)c1)c1ccccn1 |
| 0.2 | CCCCCCC(=O)Nc1cccc(Nc2nccc(-c3cccnc3)n2)c1 |
| 10 | Cc1ccc(NC(=O)Nc2ccc(N(C)C)cc2)cc1Nc1nccc(-c2cccnc2)n1 |
| 0.794 | Cc1ccc(NC(=O)c2ccc(Cl)cc2)cc1Nc1nccc(-c2cccnc2)n1 |
| 67.6 | Cc1ccc(NC(=O)c2ccc(N)cc2)cc1Nc1nccc(-c2cccnc2)n1 |
| 9.77 | Nc1ccc(C(=O)Nc2cccc(Nc3nccc(-c4cccnc4)n3)c2)cc1 |
| 0.501 | O=C(Nc1cccc(Nc2nccc(-c3cccnc3)n2)c1)c1ccncc1 |
| 2.19 | Cc1ccc(NC(=O)c2ccc(/N=N/N(C)C)cc2)cc1Nc1nccc(-c2cccnc2)n1 |
| 0.794 | COc1ccccc1C(=O)Nc1ccc(C)c(Nc2nccc(-c3cccnc3)n2)c1 |
| 0.603 | Nc1cccc(Nc2nccc(-c3ccncc3)n2)c1 |
| 1.29 | N#Cc1ccc(C(=O)Nc2cccc(Nc3nccc(-c4cccnc4)n3)c2)cc1 |
| 0.302 | O=C(Nc1cccc(Nc2nccc(-c3cccnc3)n2)c1)C1=CC=CCC1=S |
| 0.0646 | CN1CCN(c2ccc(C(=O)Nc3[nH]nc4c3CN(C(=O)Cc3cccs3)C4)cc2)CC1 |
| 50.1 | Cc1ccc(-c2ccnc(Nc3cccc(OC(F)(F)C(F)F)c3)n2)cc1 |
| 1.2 | O=[N+]([O-])c1cccc(Nc2nccc(-c3ccccn3)n2)c1 |
| 0.575 | Cc1ccc(NC(=O)Nc2cccc(N(C)C)c2)cc1Nc1nccc(-c2cccnc2)n1 |
| 0.00398 | Cc1ccc(NC(=O)c2ccc(CN3CCC(N(C)C)C3)c(C(F)(F)F)c2)cc1Nc1nccc(-c2cncnc2)n1 (stereo not drawn) |
| 7.94 | O=C(O)c1cccc(Nc2nccc(-c3cccnc3)n2)c1 |
| 0.603 | CCC(=O)Nc1ccc(Sc2nc(Nc3cc(C)[nH]n3)cc(N3CCN(C)CC3)n2)cc1 |
| 10 | CCN(CC)c1ccc(NC(=O)Nc2ccc(C)c(Nc3nccc(-c4cccnc4)n3)c2)cc1 |
| 0.1 | CN1CCN(Cc2ccc(C(=O)Nc3cccc(Nc4nccc(-c5cccnc5)n4)c3)cc2)CC1 |
| 0.398 | NCCCCNC(=O)c1cccc(Nc2nccc(-c3cccnc3)n2)c1 |
| 10 | c1cc(CCN2CCOCC2)cc(Nc2nccc(-c3cccnc3)n2)c1 |

| IC50 [µM] | Structure (SMILES) |
| --- | --- |
| 0.347 | NCCCn1ccc2c(-c3ccnc(Nc4cccc(OC(F)(F)C(F)F)c4)n3)cccc21 |
| 33.9 | O=[N+]([O-])c1cccc(Nc2nccc(-c3cccnc3)n2)c1 |
| 2 | O=C(O)c1ccccc1C(=O)Nc1cccc(Nc2nccc(-c3cccnc3)n2)c1 |
| 5.75 | CC(=O)Nc1ccc(C)c(Nc2nccc(-c3cccnc3)n2)c1 |
| 3.31 | c1cncc(-c2ccnc(Nc3cccc(-n4ccnc4)c3)n2)c1 |
| 5.13 | COC(=O)c1cccc(Nc2nccc(-c3cccnc3)n2)c1 |
| 0.01 | Cc1ccc(NC(=O)c2ccc(CN3CCN(C)CC3)c(Cl)c2)cc1Nc1nccc(-c2cccnc2)n1 |
| 33.2 | COCCN(C)/N=N/c1ccc(C(=O)Nc2cccc(Nc3nccc(-c4cccnc4)n3)c2)cc1 |
| 1 | c1cc(Nc2nccc(-c3cccnc3)n2)cc(OCCn2ccnc2)c1 |
| 0.398 | Cc1ccc(NC(=O)c2ccccc2)cc1Nc1nccc(-c2cccnc2)n1 |
| 61.7 | O=[N+]([O-])c1cccc(Nc2nccc(-c3ccncc3)n2)c1 |
| 5.37 | COCCN/N=N/c1cccc(Nc2cc(-c3cccnc3)ncn2)c1 |
| 1 | Cc1ccc(NC(=O)NCc2cccc(Cl)c2)cc1Nc1nccc(-c2cccnc2)n1 |
| 0.00407 | CN1CCN(c2ccc(C(=O)Nc3n[nH]c4sc(C(=O)NC(C)(C)c5ccccc5)cc34)cc2)CC1 |
| 0.708 | Nc1cccc(Nc2nccc(-c3cccnc3)n2)c1 |
| 1.82 | Cc1cccc(Nc2nccc(-c3cccnc3)n2)c1 |
| 0.0209 | CC(C)(NC(=O)c1cc2c(NC(=O)c3ccc(CN4CCCCC4)cc3)n[nH]c2s1)c1ccccc1 |
| 1 | CCN(CC)c1cccc(NC(=O)Nc2ccc(C)c(Nc3nccc(-c4cccnc4)n3)c2)c1 |
| 0.01 | Cc1ccc(NC(=O)c2ccc(CN3CCN(C)CC3)c(I)c2)cc1Nc1nccc(-c2cccnc2)n1 |
| 0.398 | O=C(Nc1cccc(Nc2nccc(-c3cccnc3)n2)c1)c1ccccc1 |
| 100 | FC(F)C(F)(F)Oc1cccc(Nc2nccc(-c3ccncc3)n2)c1 |
| 1.51 | Cc1ccc(N)cc1Nc1nccc(-c2cccnc2)n1 |
| 5.01 | Cc1ccc(NC(=O)N2CCN(C)CC2)cc1Nc1nccc(-c2cccnc2)n1 |
| 1.51 | Clc1cccc(Nc2nccc(-c3cccnc3)n2)c1 |
| 1 | Cc1ccc(C(=O)Nc2cccc(Nc3nccc(-c4cccnc4)n3)c2)cc1 |
| 8.91 | Cc1ccc(NC(=O)NCCN2CCCC2)cc1Nc1nccc(-c2cccnc2)n1 |

| Structure (SMILES) | IC50 [µM] |
| --- | --- |
| O=C(Nc1cccc(Nc2nccc(-c3cccnc3)n2)c1)c1cccnc1 | 0.151 |
| O=C(Nc1cccc(Nc2nccc(-c3cccnc3)n2)c1)C1CCCCC1 | 0.447 |
| Cc1ccc(NC(=O)c2ccc3ccccc3c2)cc1Nc1nccc(-c2cccnc2)n1 | 0.2 |
| FC(F)C(F)(F)Oc1cccc(Nc2nccc(-c3c[nH]c4ccccc34)n2)c1 | 0.372 |
| Cc1ccc(NC(=O)c2ccc(/N=N/N(C)CCCl)cc2)cc1Nc1nccc(-c2cccnc2)n1 | 17.4 |
